Reference: patent publication US9895346B2, “Applications of substituent benzyloxy group containing ether compounds for preparing antitumor drugs” (Sinochem Corporation, priority 2013, dated 2018)

What was measured:
[1] = system: prostate cancer cell line LNCap; experiment: In vitro cell inhibition assay (crystal violet), prostate cancer LNCap; assay type: cell-based, human
Text: (§1) In vitro Cell inhibition assay is as follows:
(§2) The human cancer cell lines used for this assay were bladder cancer J82, T24, prostate cancer LNCap, PC-3, lung cancer A549, H157, H460, H520, colon cancer HCT8, HCT116, RkO, and leukemia HL-60, etc.
(§3) In vitro cell culture technology was selected for the determination of inhibition rate bladder cancer cell lines J82 and T24, prostate cancer cell lines LNCap and PC-3, lung cancer cell lines A549, H157, H460 and H520. 1000 to 3000 cells were inoculated to 24-well plate, followed by addition of 1 mL culture medium well known to researchers in this field to each well, the cells were cultured in 5% incubator for 24 hours at 37° C., then the different concentration compounds and controls were added to each well. It should be noted that the added volume is not more than 0.5% of total volume. After completion of addition, the cells continued being cultured in incubator for one week, the culture medium was removed and washed by cold PBS of 1 mL once, and then fixed for 10 minutes at room temperature with 1% formalin, followed by wash with PBS of 1 mL. After fixation, stain was carried out with 0.1% crystal violet for 30 minutes. 0.1% crystal violet was recycled. The stained cells were washed gently with deionized water, dried at room temperature and kepted. The inhibition rate was calculated according to the foiling equation. The controls are Selumetinib (AZD6244), Gefitinib, Cisplatin. Inhibition rate=number of left cells each treatment/number of left cells of untreated control×100%

[2] = system: bladder cancer cell line J82; experiment: In vitro cell inhibition assay (crystal violet), bladder cancer J82; assay type: cell-based, human
Text: as §1, §2, §3

[3] = system: lung cancer cell line H520; experiment: In vitro cell inhibition assay (crystal violet), lung cancer H520; assay type: cell-based, human
Summary of the method: (§4)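 1000-3000 cells per well grown 24 h at 37 °C, then exposed to compound for one week (vehicle ≤0.5% of volume). Cells formalin-fixed and stained with 0.1% crystal violet. Inhibition rate = remaining cells in treated wells / remaining cells in untreated control × 100%.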

[4] = system: lung cancer cell line H460; experiment: In vitro cell inhibition assay (crystal violet), lung cancer H460; assay type: cell-based, human
Summary of the method: as §4

[5] = system: prostate cancer cell line PC-3; experiment: In vitro cell inhibition assay (crystal violet), prostate cancer PC-3; assay type: cell-based, human
Text: as §1, §2, §3

colon cancer RkO = experiment: In vitro cell inhibition assay, colon cancer RkO; assay type: cell-based, human
Text: as §1, §2

[6] = system: lung cancer cell line H157; experiment: In vitro cell inhibition assay (crystal violet), lung cancer H157; assay type: cell-based, human
Text: as §1, §2, §3

[7] = system: human leukemia HL-60 cells; experiment: Proliferation inhibition of human leukemia HL-60 cells, MTT method; assay type: cell-based; conditions: 48 h incubation, OPTI-MEM medium
Summary of the method: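 Cells at 5×10^4 cells/mL cultured overnight at 37 °C, 5% CO2, then exposed to compounds at different concentrations for 48 h. MTT added for 4 h, formazan dissolved in DMSO and absorbance read at 570 nm to give inhibition rate.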

[8] = system: lung cancer cell line A549; experiment: In vitro cell inhibition assay (crystal violet), lung cancer A549; assay type: cell-based, human
Summary of the method: as §4

colon cancer HCT8 = experiment: In vitro cell inhibition assay, colon cancer HCT8; assay type: cell-based, human
Text: as §1, §2

colon cancer HCT116 = experiment: In vitro cell inhibition assay, colon cancer HCT116; assay type: cell-based, human
Text: as §1, §2

[9] = system: bladder cancer cell line T24; experiment: In vitro cell inhibition assay (crystal violet), bladder cancer T24; assay type: cell-based, human
Text: as §1, §2, §3

`CCCCc1c(C)c2ccc(OCc3ccccc3/C(=C\OC)C(=O)OC)cc2oc1=O` [Compound 28-72, coumoxystrobin] was tested, and the “Inhibition rate on human cancer cells” value ([1]; 0.25 μM) was 100%, the “Inhibition rate on human cancer cells” value ([1]; 0.5 μM) was 100% and the “Inhibition rate on human cancer cells” value ([1]; 1.0 μM) was 100%. The “Inhibition rate on human cancer cells” value ([1]; 2.5 μM) was 100%, the “Inhibition rate on human cancer cells” value ([1]; 5.0 μM) was 100% and the “Inhibition rate on human cancer cells” value ([2]; J82, 0.25 μM) was 70%. The “Inhibition rate on human cancer cells” value ([2]; J82, 0.5 μM) was 90%, the “Inhibition rate on human cancer cells” value ([2]; J82, 1.0 μM) was 95% and the “Inhibition rate on human cancer cells” value ([2]; J82, 2.5 μM) was 100%. For the same molecule, the “Inhibition rate on human cancer cells” value ([2]; J82, 5.0 μM) was 100%, the “Inhibition rate on human cancer cells” value ([3]; H520, 0.25 μM) was greater than 90% and the “Inhibition rate on human cancer cells” value ([3]; H520, 0.5 μM) was 100%. The “Inhibition rate on human cancer cells” value ([3]; H520, 1.0 μM) was 100%, the “Inhibition rate on human cancer cells” value ([3]; H520, 2.5 μM) was 100% and the “Inhibition rate on human cancer cells” value ([3]; H520, 5.0 μM) was 100%. For the same molecule, the “Inhibition rate on human cancer cells” value ([4]; H460, 0.25 μM) was 95%, the “Inhibition rate on human cancer cells” value ([4]; H460, 0.5 μM) was 100% and the “Inhibition rate on human cancer cells” value ([4]; H460, 1.0 μM) was 100%. For the same molecule, the “Inhibition rate on human cancer cells” value ([4]; H460, 2.5 μM) was 100%, the “Inhibition rate on human cancer cells” value ([4]; H460, 5.0 μM) was 100% and the “Inhibition rate on human cancer cells” value ([5]; PC-3, 0.25 μM) was 100%. The “Inhibition rate on human cancer cells” value ([5]; PC-3, 0.5 μM) was 100%, the “Inhibition rate on human cancer cells” value ([5]; PC-3, 1.0 μM) was 100% and the “Inhibition rate on human cancer cells” value ([5]; PC-3, 2.5 μM) was 100%. For the same molecule, the “Inhibition rate on human cancer cells” value ([5]; PC-3, 5.0 μM) was 100%, the “Inhibition rate on human cancer cells” value (colon cancer RkO; 0.25 μM) was 95% and the “Inhibition rate on human cancer cells” value (colon cancer RkO; 0.5 μM) was 100%. The “Inhibition rate on human cancer cells” value (colon cancer RkO; 1.0 μM) was 100%, the “Inhibition rate on human cancer cells” value (colon cancer RkO; 2.5 μM) was 100% and the “Inhibition rate on human cancer cells” value (colon cancer RkO; 5.0 μM) was 100%. For the same molecule, the “Inhibition rate on human cancer cells” value ([6]; H157, 0.25 μM) was greater than 90%, the “Inhibition rate on human cancer cells” value ([6]; H157, 0.5 μM) was 100% and the “Inhibition rate on human cancer cells” value ([6]; H157, 1.0 μM) was 100%. For the same molecule, the “Inhibition rate on human cancer cells” value ([6]; H157, 2.5 μM) was 100%, the “Inhibition rate on human cancer cells” value ([6]; H157, 5.0 μM) was 100% and the “Proliferation inhibitory effect on human leukemia HL-60 cell (%)” value (“Proliferation inhibitory effect … (%)” below) ([7]; concentration 1 μM) was 45.3%. For the same molecule, the “Proliferation inhibitory effect … (%)” value ([7]; concentration 10 μM) was 47.9%, the “Proliferation inhibitory effect … (%)” value ([7]; concentration 100 μM) was 54.4% and the “Inhibition rate on human cancer cells” value ([8]; A549, 0.5 μM) was 90%. The “Inhibition rate on human cancer cells” value ([8]; A549, 1.0 μM) was 95%, the “Inhibition rate on human cancer cells” value ([8]; A549, 2.5 μM) was 100% and the “Inhibition rate on human cancer cells” value ([8]; A549, 5.0 μM) was 100%. For the same molecule, the “Inhibition rate on human cancer cells” value (colon cancer HCT8; HCT 8, 0.5 μM) was 95%, the “Inhibition rate on human cancer cells” value (colon cancer HCT8; HCT 8, 1.0 μM) was 100% and the “Inhibition rate on human cancer cells” value (colon cancer HCT8; HCT 8, 2.5 μM) was 100%. The “Inhibition rate on human cancer cells” value (colon cancer HCT8; HCT 8, 5.0 μM) was 100%, the “Inhibition rate on human cancer cells” value (colon cancer HCT116; HCT 116, 0.25 μM) was 80% and the “Inhibition rate on human cancer cells” value (colon cancer HCT116; HCT 116, 0.5 μM) was 95%. The “Inhibition rate on human cancer cells” value (colon cancer HCT116; HCT 116, 1.0 μM) was 99%, the “Inhibition rate on human cancer cells” value (colon cancer HCT116; HCT 116, 2.5 μM) was 100% and the “Inhibition rate on human cancer cells” value (colon cancer HCT116; HCT 116, 5.0 μM) was 100%. The “Inhibition rate on human cancer cells” value ([9]; T24, 0.25 μM) was 100%, the “Inhibition rate on human cancer cells” value ([9]; T24, 0.5 μM) was 100% and the “Inhibition rate on human cancer cells” value ([9]; T24, 1.0 μM) was 100%. For the same molecule, the “Inhibition rate on human cancer cells” value ([9]; T24, 2.5 μM) was 100% and the “Inhibition rate on human cancer cells” value ([9]; T24, 5.0 μM) was 100%.
